Assay results: paper PMC7841778 (ACS Omega, 2021)

What was measured:
[1] = molecular target: T1, human pancreatic α-amylase (HPA) (Homo sapiens, UniProt P04746); experiment: hydrolysis kinetics, KM; format: biochemical; settings: read-out: KM ^b
T1 sequence (P04746 16-511): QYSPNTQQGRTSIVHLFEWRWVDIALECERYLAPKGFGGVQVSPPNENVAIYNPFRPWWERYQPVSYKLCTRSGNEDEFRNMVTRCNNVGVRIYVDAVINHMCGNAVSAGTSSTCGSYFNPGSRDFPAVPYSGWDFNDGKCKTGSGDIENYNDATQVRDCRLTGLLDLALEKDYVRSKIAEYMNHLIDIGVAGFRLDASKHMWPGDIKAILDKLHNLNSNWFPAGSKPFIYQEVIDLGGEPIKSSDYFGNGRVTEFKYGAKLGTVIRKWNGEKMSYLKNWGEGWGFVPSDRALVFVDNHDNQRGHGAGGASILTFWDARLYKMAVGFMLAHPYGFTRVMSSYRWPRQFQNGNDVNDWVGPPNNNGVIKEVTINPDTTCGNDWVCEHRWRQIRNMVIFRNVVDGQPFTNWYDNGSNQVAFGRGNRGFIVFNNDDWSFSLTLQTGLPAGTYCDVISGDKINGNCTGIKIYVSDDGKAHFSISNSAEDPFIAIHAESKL

[2] = molecular target: T1, human pancreatic α-amylase (HPA); experiment: ITC; format: binding

| Compound | Km [1] [µM] | Kd [2] [nM] |
| --- | --- | --- |
| OC[C@H]1O[C@H](O[C@H]2[C@H](O)[C@@H](O)[C@@H](O[C@H]3[C@H](O)[C@@H](O)[C@@H](O[C@H]4[C@H](O)[C@@H](O)[C@@H](O[C@H]5[C@H](O)[C@@H](O)C(O)O[C@@H]5CO)O[C@@H]4CO)O[C@@H]3CO)O[C@@H]2CO)[C@H](O)[C@@H](O)[C@@H]1O (some centres unmarked) [maltopentaose] | 132 ± 6.62 | – |
| C=CCc1ccc(Oc2cc(CC=C)cc(OC)c2O)c(OC)c1 [DDEB, dehydrodieugenol B] | – | 1970 |
